For one test, the target named is human D2LR (Homo sapiens (Human), UniProt P14416). The experiment in a line: Radioligand competition binding vs. [3H]-(R)-(+)-7-OH-DPAT, hD2R. For orientation: In a radioligand displacement assay an active substance lowers the binding of a labelled ligand.
For another test, the target named is human D3R (Homo sapiens (Human), UniProt P35462). The experiment in a line: Radioligand competition binding vs. [3H]-(R)-(+)-7-OH-DPAT, hD3R. The conditions noted are these: for D2R/D3R: ratio of Ki, D3R selectivity over D2R.
Where [1] appears, read: vs. [3H]-(R)-(+)-7-OH-DPAT, HEK293 cells stably expressing hD2R, read-out: D2R Ki ± SEM.
Setting [2] is: vs. [3H]-(R)-(+)-7-OH-DPAT, HEK293 cells stably expressing hD3R, read-out: D3R Ki ± SEM.

This is an account of results in patent US12479838B2, “D3 receptor agonist compounds; methods of preparation; intermediates thereof; and methods of use thereof” (THE UNITED STATES OF AMERICA, AS REPRESENTED BY THE …, priority 2019, dated 2025).

Read-outs that look alike come from different tables or passages of the source.

Chain of human D2LR (P14416 whole entry): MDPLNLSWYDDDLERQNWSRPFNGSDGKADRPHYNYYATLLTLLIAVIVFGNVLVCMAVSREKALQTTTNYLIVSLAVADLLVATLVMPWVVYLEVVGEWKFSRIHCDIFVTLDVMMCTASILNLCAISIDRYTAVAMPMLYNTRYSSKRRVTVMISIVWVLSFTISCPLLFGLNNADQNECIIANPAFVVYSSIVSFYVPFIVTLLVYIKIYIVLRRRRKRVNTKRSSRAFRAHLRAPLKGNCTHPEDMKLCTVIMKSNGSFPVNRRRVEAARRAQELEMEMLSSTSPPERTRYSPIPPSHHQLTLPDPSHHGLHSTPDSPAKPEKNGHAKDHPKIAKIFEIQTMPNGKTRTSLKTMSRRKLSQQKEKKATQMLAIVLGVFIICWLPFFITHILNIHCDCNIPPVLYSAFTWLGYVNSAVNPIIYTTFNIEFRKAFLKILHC
Chain of human D3R (P35462 whole entry): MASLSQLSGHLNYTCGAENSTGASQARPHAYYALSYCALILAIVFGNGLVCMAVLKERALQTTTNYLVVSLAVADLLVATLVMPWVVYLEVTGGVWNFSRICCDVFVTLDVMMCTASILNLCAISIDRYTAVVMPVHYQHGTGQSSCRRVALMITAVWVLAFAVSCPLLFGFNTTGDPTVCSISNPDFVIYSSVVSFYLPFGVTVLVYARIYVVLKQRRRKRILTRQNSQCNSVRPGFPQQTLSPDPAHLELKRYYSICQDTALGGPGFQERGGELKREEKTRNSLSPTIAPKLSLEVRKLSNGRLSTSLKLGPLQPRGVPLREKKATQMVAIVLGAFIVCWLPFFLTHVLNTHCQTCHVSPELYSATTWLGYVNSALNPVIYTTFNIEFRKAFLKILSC

With `CCCN1CCO[C@@H]2c3cc(O)ccc3OC[C@@H]21` (racemic) [(±)-cis-2, reference compound], the Ki (as a rule, a measure of affinity in units of concentration, obtained from inhibition or displacement) on human D2LR was greater than 10 µM; on human D3R it was greater than 10000 nM.
Consider `C[C@H]1CO[C@H](c2ccc(N)nc2)CN1CC1CC1CNC(=O)c1cc2ccccc2[nH]1` (mixture of isomers) [rac-trans-AB05-26, trans-N-((2-(((2R,5S)-2-(6-aminopyridin-3-yl)-5-methylmorpholino)methyl)cyclopropyl)methyl)-1H-indole-2-carboxamide], for which the Ki at human D2LR (setting [1]) was determined as 14.1 µM; on human D3R (setting [2]), 66200 nM. Also, the D2R/D3R at human D3R (vs. [3H]-(R)-(+)-7-OH-DPAT) is 0.213.
For `O=C(NCCCCNC1COc2ccc(O)cc2C1=O)c1cc2ccccc2[nH]1` (single isomer, unassigned) [SLC02-16A, N-(4-((6-hydroxy-4-oxochroman-3-yl)amino)butyl)-1H-indole-2-carboxamide], in that order: 0.245 ± 0.032 µM, 354 ± 45.1 nM and 0.710.
For the compound `O=C(NCCCCNC1COc2ccc(O)cc2C1=O)c1cc2ccccc2[nH]1` (single isomer, unassigned) [SLC02-16B, N-(4-((6-hydroxy-4-oxochroman-3-yl)amino)butyl)-1H-indole-2-carboxamide], the Ki at human D2LR (setting [1]) was 1.43 µM; on human D3R (setting [2]), 1770 nM. The D2R/D3R on human D3R (vs. [3H]-(R)-(+)-7-OH-DPAT) was 0.808.
In the same order, the values of `CCCN1CCO[C@@H]2c3cc(OCCCCN4C(=O)c5ccccc5C4=O)ccc3OC[C@H]21` [AB02-119] are 2.51 µM, 1190 nM and 2.11.
`CCCN(CCC)c1ccc(C2CN(CCC)C(C)CO2)cn1` (stereo not drawn) [AB03-14]: the inhibition constant Ki is greater than 5 µM on human D2LR (setting [1]) and greater than 10000 nM at human D3R (setting [2]).
As to `CCCN1CCO[C@@H]2c3cc(OCCCCOc4ccc5c(c4)NC(=O)CC5)ccc3OC[C@H]21` [AB04-38, 7-(4-(((4aR,10bR)-4-propyl-3,4,4a,10b-tetrahydro-2H,5H-chromeno[4,3-b][1,4]oxazin-9-yl)oxy)butoxy)-3,4-dihydroquinolin-2(1H)-one], the figures for the inhibition constant (Ki) at human D2LR (setting [1]) and at human D3R (setting [2]) were 10.1 µM and 1590 nM, respectively. In addition, the D2R/D3R on human D3R (vs. [3H]-(R)-(+)-7-OH-DPAT) stood at 6.35.
For `CCCN1CCO[C@@H]2c3cc(OCCCCNC(=O)c4ccc5scnc5c4)ccc3OC[C@H]21` [AB04-41, N-(4-(((4aR,10bR)-4-propyl-3,4,4a,10b-tetrahydro-2H,5H-chromeno[4,3-b][1,4]oxazin-9-yl)oxy)butyl)benzo[d]thiazole-5-carboxamide], in that order: 9.16 µM, 2130 nM and 4.30.
Turning to `CCCN1CCO[C@@H]2c3cc(OCCCCNC(=O)c4cc5cccnc5[nH]4)ccc3OC[C@H]21` [AB04-42, N-(4-(((4aR,10bR)-4-propyl-3,4,4a,10b-tetrahydro-2H,5H-chromeno[4,3-b][1,4]oxazin-9-yl)oxy)butyl)-1H-pyrrolo[2,3-b]pyridine-2-carboxamide], the inhibitory constant (Ki) amounted to 27 µM at human D2LR (setting [1]) and 8660 nM at human D3R (setting [2]). Also, the D2R/D3R at human D3R (vs. [3H]-(R)-(+)-7-OH-DPAT) came out at 3.12.
Take `Oc1ccc2c(c1)[C@H]1OCCN[C@@H]1CO2` [AB04-75, (4aR,10bR)-3,4,4a,10b-tetrahydro-2H,5H-chromeno[4,3-b][1,4]oxazin-9-ol, reference compound]: the Ki on human D2LR (setting [1]) is 4.25 µM; on human D3R (setting [2]), 403 ± 5.55 nM. The D2R/D3R at human D3R (vs. [3H]-(R)-(+)-7-OH-DPAT) worked out at 10.5.
`C[C@H]1CO[C@H](c2ccc(N)nc2)CN1` [AB04-85A, 5-((2R,5S)-5-methylmorpholin-2-yl)pyridin-2-amine]: the Ki on human D2LR (setting [1]) is 7.1 µM; on human D3R (setting [2]), 1520 nM. The D2R/D3R on human D3R (vs. [3H]-(R)-(+)-7-OH-DPAT) was determined as 4.67.
On to `C[C@H]1CO[C@@H](c2ccc(N)nc2)CN1` [AB04-85B, 5-((2S,5S)-5-methylmorpholin-2-yl)pyridin-2-amine], for which the Ki was 2.34 µM at human D2LR (setting [1]) and 424 ± 32.4 nM on human D3R (setting [2]). The D2R/D3R on human D3R (vs. [3H]-(R)-(+)-7-OH-DPAT) stood at 5.52.
For `C[C@H]1CO[C@H](c2ccc(N)nc2)CN1CCCCOc1ccc2c(c1)NC(=O)CC2` [AB04-95, 7-(4-((2R,5S)-2-(6-aminopyridin-3-yl)-5-methylmorpholino)butoxy)-3,4-dihydroquinolin-2(1H)-one], in that order: 2.66 µM, 24200 nM and 0.110.
Consider `C[C@H]1CO[C@@H](c2ccc(N)nc2)CN1CCCCOc1ccc2c(c1)NC(=O)CC2` [AB04-96, 7-(4-((2S,5S)-2-(6-aminopyridin-3-yl)-5-methylmorpholino)butoxy)-3,4-dihydroquinolin-2(1H)-one], for which the inhibition constant (Ki) at human D2LR (setting [1]) came out at 0.0346 ± 0.00486 µM. At human D3R (vs. [3H]-(R)-(+)-7-OH-DPAT), the D2R/D3R is 1.11 and the “D3R affinity, fold better than its (2R,5S) diastereoisomer” value is listed as 775 fold. On human D3R (setting [2]), the Ki is 31.2 ± 8.72 nM.
In the case of `C[C@H]1CO[C@H](c2ccc(N)nc2)CN1C/C=C/COc1ccc2c(c1)NC(=O)CC2` [FOB01-42, 7-(((E)-4-((2R,5S)-2-(6-aminopyridin-3-yl)-5-methylmorpholino)but-2-en-1-yl)oxy)-3,4-dihydroquinolin-2(1H)-one], the Ki on human D2LR (setting [1]) is 21.1 µM; at human D3R (setting [2]), 73000 nM. The D2R/D3R at human D3R (vs. [3H]-(R)-(+)-7-OH-DPAT) worked out at 0.289.
Take `C[C@H]1CO[C@@H](c2ccc(N)nc2)CN1C/C=C/COc1ccc2c(c1)NC(=O)CC2` [FOB01-44, 7-(((E)-4-((2S,5S)-2-(6-aminopyridin-3-yl)-5-methylmorpholino)but-2-en-1-yl)oxy)-3,4-dihydroquinolin-2(1H)-one]: the values for the inhibition constant (Ki) on human D2LR (setting [1]) and at human D3R (setting [2]) were 0.341 ± 0.0276 µM and 1150 nM, respectively. Further, the D2R/D3R at human D3R (vs. [3H]-(R)-(+)-7-OH-DPAT) amounted to 0.297.
Consider `CCCN1CCO[C@@H]2c3cc(OCCCCNC(=O)c4ccc5c(c4)Cc4ccccc4-5)ccc3OC[C@H]21` [SLC01-24, N-(4-(((4aR,10bR)-4-propyl-3,4,4a,10b-tetrahydro-2H,5H-chromeno[4,3-b][1,4]oxazin-9-yl)oxy)butyl)-9H-fluorene-2-carboxamide], for which the inhibitory constant (Ki) at human D2LR (setting [1]) came out at 6.71 µM; on human D3R (setting [2]), 806 ± 185 nM. On human D3R (vs. [3H]-(R)-(+)-7-OH-DPAT), the D2R/D3R turned out to be 8.33.
In the same order, the values of `CCCN1CCO[C@@H]2c3cc(OCCCCNC(=O)c4cc5ccccc5[nH]4)ccc3OC[C@H]21` [SLC01-25, N-(4-(((4aR,10bR)-4-propyl-3,4,4a,10b-tetrahydro-2H,5H-chromeno[4,3-b][1,4]oxazin-9-yl)oxy)butyl)-1H-indole-2-carboxamide] are 3.86 µM, 613 ± 50.6 nM and 6.30.
Regarding `CCCN1CCO[C@@H]2c3cc(OCCCCNC(=O)c4cc5ccccc5o4)ccc3OC[C@H]21` [SLC01-26, N-(4-(((4aR,10bR)-4-propyl-3,4,4a,10b-tetrahydro-2H,5H-chromeno[4,3-b][1,4]oxazin-9-yl)oxy)butyl)benzofuran-2-carboxamide], the Ki on human D2LR (setting [1]) came to 9.45 µM; on human D3R (setting [2]) it was 6010 nM. Further, the D2R/D3R at human D3R (vs. [3H]-(R)-(+)-7-OH-DPAT) was 1.57.
Take `CCCN1CCO[C@@H]2c3cc(OCCCCNC(=O)c4nc5ccccc5s4)ccc3OC[C@H]21` [SLC01-35, N-(4-(((4aR,10bR)-4-propyl-3,4,4a,10b-tetrahydro-2H,5H-chromeno[4,3-b][1,4]oxazin-9-yl)oxy)butyl)benzo[d]thiazole-2-carboxamide]: the values for the Ki on human D2LR (setting [1]) and on human D3R (setting [2]) were 5.51 µM and 1330 nM, respectively. Moreover, at human D3R (vs. [3H]-(R)-(+)-7-OH-DPAT), the D2R/D3R worked out at 4.14.
With `O=C1CCc2ccc(OCCCCN3CCO[C@@H]4c5cc(O)ccc5OC[C@H]43)cc2N1` [SLC02-11, 7-(4-((4aR,10bR)-9-hydroxy-2,3,4a,10b-tetrahydro-4H,5H-chromeno[4,3-b][1,4]oxazin-4-yl)butoxy)-3,4-dihydroquinolin-2(1H)-one], the inhibitory constant (Ki) on human D2LR (setting [1]) worked out at 6.26 µM; on human D3R (setting [2]) it was 11300 nM. Besides, on human D3R (vs. [3H]-(R)-(+)-7-OH-DPAT), the D2R/D3R came out at 0.554.
As to `C[C@H]1CO[C@@H](c2ccc(N)nc2)CN1CC1CC1CNC(=O)c1cc2ccccc2[nH]1` (stereo partly drawn) [cis-FOB01-59A, cis-N-((2-(((2S,5S)-2-(6-aminopyridin-3-yl)-5-methylmorpholino)methyl)cyclopropyl)methyl)-1H-indole-2-carboxamide], the Ki stood at 1.07 µM at human D2LR (setting [1]) and 2150 nM on human D3R (setting [2]). At human D3R (vs. [3H]-(R)-(+)-7-OH-DPAT), the D2R/D3R was found to be 0.498.
In the same order, the values of `C[C@H]1CO[C@@H](c2ccc(N)nc2)CN1CC1CC1CNC(=O)c1cc2ccccc2[nH]1` (stereo partly drawn) [cis-FOB01-59B, cis-N-((2-(((2S,5S)-2-(6-aminopyridin-3-yl)-5-methylmorpholino)methyl)cyclopropyl)methyl)-1H-indole-2-carboxamide] are 0.12 ± 0.0166 µM, 276 ± 30 nM and 0.435.
For `C[C@H]1CO[C@H](c2ccc(N)nc2)CN1CC1CC1CNC(=O)c1cc2ccccc2[nH]1` (stereo partly drawn) [cis-FOB01-60A, cis-N-((2-(((2R,5S)-2-(6-aminopyridin-3-yl)-5-methylmorpholino)methyl)cyclopropyl)methyl)-1H-indole-2-carboxamide], the Ki on human D2LR (setting [1]) was found to be 11.3 µM; on human D3R (setting [2]), 26200 nM. The D2R/D3R on human D3R (vs. [3H]-(R)-(+)-7-OH-DPAT) turned out to be 0.431.
For `C[C@H]1CO[C@H](c2ccc(N)nc2)CN1CC1CC1CNC(=O)c1cc2ccccc2[nH]1` (stereo partly drawn) [cis-FOB01-60B, cis-N-((2-(((2R,5S)-2-(6-aminopyridin-3-yl)-5-methylmorpholino)methyl)cyclopropyl)methyl)-1H-indole-2-carboxamide], the Ki stood at 7.73 µM on human D2LR (setting [1]) and 32900 nM at human D3R (setting [2]). Moreover, the D2R/D3R at human D3R (vs. [3H]-(R)-(+)-7-OH-DPAT) worked out at 0.235.
With `C[C@H]1CO[C@@H](c2ccc(N)nc2)CN1CC1CC1CNC(=O)c1cc2ccccc2[nH]1` (stereo partly drawn) [trans-AB05-27A, trans-N-((2-(((2S,5S)-2-(6-aminopyridin-3-yl)-5-methylmorpholino)methyl)cyclopropyl)methyl)-1H-indole-2-carboxamide], the inhibition constant Ki on human D2LR (vs. [3H]-(R)-(+)-7-OH-DPAT, HEK293 cells stably expressing hD2R, listed as AB05-27A, read-out: D2R Ki ± SEM) came to 0.216 µM; on human D2LR (setting [1]) it was 0.216 ± 0.0326 µM; at human D3R (setting [2]), 1190 nM. Moreover, the D2R/D3R at human D3R (vs. [3H]-(R)-(+)-7-OH-DPAT) is listed as 0.182.
